The numbers were not newly measured in patent US20200214978A1, “Functional chewing gum comprising phytonutrients and adaptogenic herbs” (BrilliantIQ AB, priority 2017, published 2020), which cites them from elsewhere.

The conditions of data set [1]: oral administration.
For data set [2] the following is noted: supplementation, group of healthy adults.

On to `C[N+](C)(C)CCOP(=O)([O-])OC[C@H](O)CO` [alpha-GPC, L-Alpha glycerolphosphorylcholine], for which, in data set [1], the beta waves result is given as “significant increase” and the delta waves result is recorded as “significant decrease”.

As to Phosphatidylserine, in data set [2], the “increase the speed of calculations done in short-term memory” value is recorded as 20%.
